Experimental data taken from ChEMBL document CHEMBL1149000, “Effects of p-Methoxycinnamaldehyde from Star Anise and Related Cinnamic Acid Derivatives on Velvetleaf Germination” (J Nat Prod, 1986).

Assays:
[1] = tested on: Abutilon theophrasti; assay: Herbicidal activity against velvetleaf assessed as seed germination at 1 mM after 4 days relative to control; assay type: functional
[2] = tested on: Abutilon theophrasti; assay: Herbicidal activity against velvetleaf assessed as seed germination at 2.5 mM after 4 days relative to control; assay type: functional
[3] = tested on: Abutilon theophrasti; assay: Herbicidal activity against velvetleaf assessed as seed germination at 5 mM after 4 days relative to control; assay type: functional
[4] = Inhibition of cAMP phosphodiesterase at 0.05 mM
[5] = Toxicity in rat; assay type: organism-based; details: in vivo

SMILES	Activity [1]	Activity [2]	Activity [3]	inhibition [4]	LD50 [5]
COc1ccccc1/C=C/C=O	77%	3%	0%	–	–
COc1ccc(/C=C/C(=O)O)cc1 [4-METHOXYCINNAMIC ACID]	107%	83%	83%	–	–
C/C=C/c1ccc(OC)cc1 [ANETHOLE]	98%	100%	95%	–	–
O=C/C=C/c1ccccc1 [CINNAMALDEHYDE]	57%	0%	0%	–	–
O=C(O)/C=C/c1ccccc1 [CINNAMIC ACID]	100%	77%	5%	–	–
OC/C=C/c1ccccc1 [CINNAMIC ALCOHOL]	73%	0%	0%	–	–
COc1ccc(/C=C/C=O)cc1 [PARA-METHOXY CINNAMALDEHYDE]	83%	8%	1%	50%	> 5000 mg/kg
